Assay results taken from US7157430B2, “(Substituted)acyl dipeptidyl inhibitors of the ICE/CED-3 family of cysteine proteases” (Idun Pharmaceuticals, Inc., priority 1998, dated 2007).

Tests used:
Format in all cases: biochemical
Conditions in all cases: continuous assay 60 min, reaction initiated by adding enzyme
mICE = biological target: T1, mICE (Mus musculus, UniProt P29452); assay: Dissociation constant Ki and irreversible rate constant k3 for irreversible inhibitors, ICE
T1 sequence (P29452 123-296 limits assumed): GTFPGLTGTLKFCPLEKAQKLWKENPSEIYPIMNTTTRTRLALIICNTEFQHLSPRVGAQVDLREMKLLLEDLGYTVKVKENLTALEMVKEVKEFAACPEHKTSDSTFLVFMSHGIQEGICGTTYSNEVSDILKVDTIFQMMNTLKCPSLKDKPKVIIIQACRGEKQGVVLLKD
T1 sequence (P29452 315-402 limits assumed): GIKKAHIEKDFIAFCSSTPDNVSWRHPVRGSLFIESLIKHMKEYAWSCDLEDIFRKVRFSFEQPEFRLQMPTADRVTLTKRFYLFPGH
Source text: (§1) For the irreversible inhibition of a ICE/ced-3 Family Protease enzyme with a competitive irreversible inhibitor; using the model represented by the following formulas: […]
(§2) The product formation at time t may be expressed as:
(§3) [formula] where E, I, EI and E-I denote the active enzyme, inhibitor, non-covalent enzyme-inhibitor complex and covalent enzyme-inhibitor adduct, respectively. The Ki value is the overall dissociation constant of the reversible binding steps, and k3 is the irreversible rate constant. The [S] and Ks values are the substate concentration and dissociation constant of the substrate bound to the enzyme, respectively. [E]^T is the total enzyme concentration.
(§4) The above equations were used to determine the Ki and k3 values of a given inhibitor bound to a ICE/ced-3 family protease. Thus, a continuous assay was run for sixty minutes at various concentrations of the inhibitor and the substrate. The assay was formulated essentially the same as described above for generating the data in Table 1, except that the reaction was initiated by adding the enzyme to the substrate-inhibitor mixture. The Ki and k3 values were obtained by simulating the product AMC formation as a function of time according to Equation 1.
(§5) The reference compound for this assay was Cbz-ValAlaAsp-CH2F and the values are denoted in Table 2 as “Reference”. The Ki values in Table 2 are in micromolar (μM). The k3/Ki values are in moles^−1 seconds^−1 (M^−1s^−1).

CPP32 = biological target: T2, CPP32 (Homo sapiens, UniProt P42574); assay: Dissociation constant Ki and irreversible rate constant k3 for irreversible inhibitors, CPP32
T2 sequence (P42574 29-175 limits assumed): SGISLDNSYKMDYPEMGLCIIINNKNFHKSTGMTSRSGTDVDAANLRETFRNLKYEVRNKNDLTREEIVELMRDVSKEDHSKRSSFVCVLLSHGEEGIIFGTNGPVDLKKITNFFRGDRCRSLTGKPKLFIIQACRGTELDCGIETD
T2 sequence (P42574 176-277 limits assumed): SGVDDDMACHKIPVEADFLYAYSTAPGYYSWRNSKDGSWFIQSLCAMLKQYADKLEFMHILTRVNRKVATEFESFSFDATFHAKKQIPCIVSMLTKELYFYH
Source text: as §1, §2, §3, §4, §5

MCH-2 = biological target: T3, MCH-2 (Homo sapiens, UniProt P55212); assay: Dissociation constant Ki and irreversible rate constant k3 for irreversible inhibitors, Mch2
T3 sequence (P55212 24-179 limits assumed): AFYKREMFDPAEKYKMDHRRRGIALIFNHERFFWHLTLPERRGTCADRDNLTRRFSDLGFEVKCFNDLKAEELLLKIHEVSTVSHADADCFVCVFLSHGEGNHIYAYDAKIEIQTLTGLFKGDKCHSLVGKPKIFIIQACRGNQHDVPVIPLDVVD
T3 sequence (P55212 194-293 limits assumed): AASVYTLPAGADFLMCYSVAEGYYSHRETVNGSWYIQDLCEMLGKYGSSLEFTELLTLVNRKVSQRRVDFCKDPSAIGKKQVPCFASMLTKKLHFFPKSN
Source text: as §1, §2, §3, §4, §5

MCH-5 = MCH-5 (Homo sapiens, UniProt Q14790); assay: Dissociation constant Ki and irreversible rate constant k3 for irreversible inhibitors, Mch5
Source text: as §1, §2, §3, §4, §5

Sequence of MCH-5 (Q14790 217-374 limits assumed, species assumed): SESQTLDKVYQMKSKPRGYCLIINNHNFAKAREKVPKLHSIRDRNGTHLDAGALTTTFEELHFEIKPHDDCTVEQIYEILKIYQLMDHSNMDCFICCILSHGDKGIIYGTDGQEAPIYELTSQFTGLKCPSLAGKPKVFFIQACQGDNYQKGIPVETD
Sequence of MCH-5 (Q14790 385-479 limits assumed, species assumed): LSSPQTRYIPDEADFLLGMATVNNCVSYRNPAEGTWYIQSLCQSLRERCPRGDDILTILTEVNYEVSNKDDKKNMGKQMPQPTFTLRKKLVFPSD

Compound | Ki (mICE) | mICE k3/Ki (mICE) | CPP32 k3/Ki (CPP32) | Ki (CPP32) | Ki (MCH-2) | MCH-2 k3/Ki (MCH-2) | Ki (MCH-5) | MCH-5 k3/Ki (MCH-5)
CC(C)[C@H](NC(=O)CCOc1cccc2ccccc12)C(=O)NC(CC(=O)O)C(=O)CF (mixture of isomers) [Example 55] | 246 nM | 33,200 M^−1s^−1 | 41,300 M^−1s^−1 | 186 nM | 39 nM | 59,400 M^−1s^−1 | 56 nM | 20,400 M^−1s^−1
CC(C)[C@H](NC(=O)COc1cccc2ccccc12)C(=O)N[C@@H](CC(=O)O)C(=O)COc1cccc(F)c1 [Example 66] | 442 nM | 2,700 M^−1s^−1 | 17,800 M^−1s^−1 | 121 nM | 344 nM | 48 M⁻¹ s⁻¹ | 406 nM | 460 M⁻¹ s⁻¹
CC(C)C(NC(=O)COc1ccccc1-c1ccccc1)C(=O)NC(CC(=O)O)C(=O)CF (centres unmarked) [Example 56] | 324 nM | 15,400 M^−1s^−1 | 105,000 M^−1s^−1 | 138 nM | 53 nM | 50,000 M^−1s^−1 | 85 nM | 12,800 M^−1s^−1
CC(C)[C@H](NC(=O)COc1cccc2ccccc12)C(=O)N[C@@H](CC(=O)O)C(=O)COc1cc(F)cc(F)c1F [Example 75] | 147 nM | 14,700 M^−1s^−1 | 60,100 M^−1s^−1 | 61 nM | 221 nM | 1,510 M^−1s^−1 | 794 nM | 1,470 M^−1s^−1
CC(C)[C@H](NC(=O)COc1cccc2ccccc12)C(=O)N[C@@H](CC(=O)O)C(=O)COn1nnc2ccccc2c1=O [Example 62, (3S)-3-[N-((1-Naphthyloxy)Acetyl)Valinyl]Amino-5-(1′,2′,3′-Benzotriazin-4′(3H)-on-3′-yloxy)-4-Oxopentanoic Acid] | 253 nM | 45,400 M^−1s^−1 | 169,000 M^−1s^−1 | 52 nM | 42 nM | 44,000 M^−1s^−1 | 48 nM | 18,200 M^−1s^−1
CC(C)[C@H](NC(=O)COc1cccc2ccccc12)C(=O)N[C@@H](CC(=O)O)C(=O)COc1c(F)cccc1F [Example 71] | 193 nM | 53,900 M^−1s^−1 | 200,000 M^−1s^−1 | 39 nM | 38 nM | 9,980 M^−1s^−1 | 120 nM | 9,100 M^−1s^−1
CC(C)[C@H](NC(=O)COc1ccc2ccccc2c1)C(=O)NC(CC(=O)O)C(=O)CF (mixture of isomers) [Example 54] | 1090 nM | 8,280 M^−1s^−1 | 59,300 M^−1s^−1 | 209 nM | 57 nM | 64,400 M^−1s^−1 | 59 nM | 32,300 M^−1s^−1
CC(C)[C@H](NC(=O)COc1cccc2ccccc12)C(=O)N[C@@H](CC(=O)O)C(=O)COc1cc(F)c(F)cc1F [Example 77] | 262 nM | 11,500 M^−1s^−1 | 24,400 M^−1s^−1 | 123 nM | 526 nM | 630 M⁻¹ s⁻¹ | 1500 nM | 670 M⁻¹ s⁻¹

Now from value to compound:

Ki (mICE) | mICE k3/Ki (mICE) | CPP32 k3/Ki (CPP32) | Ki (CPP32) | Ki (MCH-2) | MCH-2 k3/Ki (MCH-2) | Ki (MCH-5) | MCH-5 k3/Ki (MCH-5) | Compound
415 nM | 37,800 M^−1s^−1 | 308,000 M^−1s^−1 | 23 nM | 12 nM | 110,000 M^−1s^−1 | 252 nM | 7,960 M^−1s^−1 | CC(C)C[C@H](NC(=O)COc1ccccc1-c1ccccc1)C(=O)N[C@@H](CC(=O)O)C(=O)COc1c(F)cc(F)cc1F [Example 163]
191 nM | 29,300 M^−1s^−1 | 241,000 M^−1s^−1 | 29 nM | 11 nM | 191,000 M^−1s^−1 | 66 nM | 16,600 M^−1s^−1 | CC(C)[C@H](NC(=O)COc1ccccc1-c1ccccc1)C(=O)N[C@@H](CC(=O)O)C(=O)COc1c(F)c(F)cc(F)c1F [Example 152]
66 nM | 106,000 M^−1s^−1 | 424,000 M^−1s^−1 | 14 nM | 21 nM | 187,000 M^−1s^−1 | 48 nM | 27,800 M^−1s^−1 | CC(C)[C@H](NC(=O)COc1cccc2ccccc12)C(=O)N[C@@H](CC(=O)O)C(=O)COP(=O)(Cc1ccccc1)c1ccccc1 (some centres unmarked) [Example 107]
453 nM | 15,500 M^−1s^−1 | 48,300 M^−1s^−1 | 136 nM | 119 nM | 16,800 M^−1s^−1 | 219 nM | 4,070 M^−1s^−1 | CCCCCCP(=O)(OCC(=O)[C@H](CC(=O)O)NC(=O)[C@@H](NC(=O)COc1cccc2ccccc12)C(C)C)c1ccc(F)cc1 (some centres unmarked) [Example 109]
349 nM | 29,600 M^−1s^−1 | 257,000 M^−1s^−1 | 32 nM | 23 nM | 88,100 M^−1s^−1 | 270 nM | 5,900 M^−1s^−1 | CC(C)[C@H](NC(=O)COc1ccccc1-c1ccccc1)C(=O)N[C@@H](CC(=O)O)C(=O)COc1c(F)cc(F)cc1F [Example 151]
319 nM | 22,200 M^−1s^−1 | 246,000 M^−1s^−1 | 44 nM | 29 nM | 104,000 M^−1s^−1 | 128 nM | 5,290 M^−1s^−1 | CC(C)C[C@H](NC(=O)COc1ccccc1-c1ccccc1)C(=O)N[C@@H](CC(=O)O)C(=O)COC(=O)c1c(Cl)cccc1Cl [Example 162]
926 nM | 4,700 M^−1s^−1 | 56,600 M^−1s^−1 | 99 nM | 23 nM | 13,600 M^−1s^−1 | 146 nM | 8,040 M^−1s^−1 | CC(C)[C@H](NC(=O)COc1cccc2ccccc12)C(=O)N[C@@H](CC(=O)O)C(=O)COc1c(F)c(F)c(F)c(F)c1F [Example 80]
225 nM | 39,300 M^−1s^−1 | 53,300 M^−1s^−1 | 257 nM | 22 nM | 72,000 M^−1s^−1 | 72 nM | 11,600 M^−1s^−1 | CC(C)[C@H](NC(=O)COc1ccc2ccccc2c1)C(=O)N[C@@H](CC(=O)O)C(=O)COc1c(F)c(F)cc(F)c1F [Example 157]
167 nM | 42,500 M^−1s^−1 | 155,000 M^−1s^−1 | 48 nM | 80 nM | 52,900 M^−1s^−1 | 134 nM | 10,500 M^−1s^−1 | CCCCCCP(=O)(OCC(=O)[C@H](CC(=O)O)NC(=O)[C@@H](NC(=O)COc1cccc2ccccc12)C(C)C)c1ccccc1 (some centres unmarked) [Example 106]
59 nM | 64,900 M^−1s^−1 | 272,000 M^−1s^−1 | 35 nM | 15 nM | 150,000 M^−1s^−1 | 43 nM | 18,800 M^−1s^−1 | CC(C)[C@H](NC(=O)COc1cccc2ccccc12)C(=O)N[C@@H](CC(=O)O)C(=O)COP(C)(=O)c1cccc2ccccc12 (some centres unmarked) [Example 110]
42 nM | 149,000 M^−1s^−1 | 317,000 M^−1s^−1 | 28 nM | 11 nM | 146,000 M^−1s^−1 | 28 nM | 80,000 M^−1s^−1 | CC(C)C[C@H](NC(=O)COc1c(C(=O)O)ccc2ccccc12)C(=O)N[C@@H](CC(=O)O)C(=O)COP(=O)(c1ccccc1)c1ccccc1 [Example 166]
